From patent publication US7981904B2, “Acetyl CoA carboxylase inhibitors” (Takeda Pharmaceutical Company Limited, priority 2008, dated 2011)

Columns and labels:
Human ACC1 = biological target: T1, Human ACC1 (Homo sapiens, UniProt Q13085); test: in vitro enzymatic ACC activity assay (malachite green, absorbance at 620 nm), ACC1; assay type: biochemical; conditions: recombinant His-tagged human ACC1, 8 μg/mL; 60 min preincubation, 20 min reaction at 30° C.
T1 construct: made in house; host or cells: SF-9 insect cells (baculovirus, pFAST-BacHTc)
Method: (§1) Provided in Example A is an in vitro enzymatic ACC activity assay for activity against ACC. The binding affinity of the test compound to ACC1 or ACC2 is determined by the changes in absorbance (at 620 nm); […]. It should be noted that a variety of other expression systems and hosts are also suitable for the expression of ACC, as would be readily appreciated by one of skill in the art.
A. Purification of Human ACC1
Human ACC1 cDNA was amplified from human liver cDNA by polymerase chain reaction using primers; 5′[…]3′ (SEQ ID NO. 1) and 5′[…]3′ (SEQ ID NO: 2). The amplified DNA fragment was digested by restriction enzyme SalI and NotI, and cloned into pFAST-BacHTc (Invitrogen). This plasmid DNA was used for preparation of recombinant vaculovirus with BAC-TO-BAC Baculovirus Expression System (Invitrogen).
SF-9 cells were infected with the vaculovirus and cultured at 27° C. for 3 days. Harvested cells were homogenized in buffer A (25 mM HEPES (pH7.5), 130 mM NaCl, 1 mM EDTA, 25 mM sodium glycerophosphate, 1 mM sodium orthovanadate, 10% glycerol, complete protease inhibitor), and subjected to ultracentrifuge at 185700×g for 50 min at 4° C. ACC1 protein with 6×His-tag at the N-terminal was purified from the supernatant using Ni-NTA Super Flow Gel (QIAGEN). Eluted protein was dialysed against buffer B (50 mM HEPES (pH 7.5), 300 mM NaCl, 10 mM MgCl2, 10 mM tripotassium citrate, 2 mM dithiothreitol) and concentrated using Vivaspin20 ultrafiltration tube (Sartorius).
(§2) C. Measurement of ACC Activity
(§3) Malachite green solution was prepared by mixing 100 mL of solution A (0.12% malachite green in 5N H2SO4), 25 mL of solution B (7.5% ammonium molybdate) and 2 mL of solution C (11% TWEEN-20).
(§4) ACC1 was diluted to 8 μg/mL in reaction buffer (50 mM HEPES pH7.5, 10 mM MgCl2, 10 mM tripotassium citrate, 2 mM DTT, 0.75 mg/mL fatty acid free BSA) and 10 μL diluted enzyme solution was pored into each well of 384-well clear bottom plate. Test compound was diluted in the reaction buffer and 5 μL of the compound solution was added into each well, and the mixture was incubated at 30° C. for 60 minutes. Reaction was initiated by addition of 5 μL substrate solution (50 mM KHCO3, 200 μM ATP, 200 μM acetyl-CoA). After incubation at 30° C. for 20 minutes, reaction was terminated by addition of 5 μL malachite green solution and absorbance at 620 nm was measured.
(§5) Percent activity at each concentration of compound was calculated from the following equation:
(§6) [formula] where Abs is absorbance, Avg is average.
(§7) Data were subjected to nonlinear regression analysis using GraphPad Prism Software (GraphPad Software Inc.) to obtain IC50 values.

Human ACC2 = biological target: T2, Human ACC2 (Homo sapiens, UniProt O00763); test: in vitro enzymatic ACC activity assay (malachite green, absorbance at 620 nm), ACC2; assay type: biochemical; conditions: recombinant His-tagged human ACC2, 6.4 μg/mL; same method as ACC1
T2 construct: made in house; host or cells: SF-9 insect cells (baculovirus, pFAST-BacHTa)
Method: as §1
B. Purification of Human ACC2
Human ACC2 cDNA except coding region for mitochondria localization sequence was amplified from human skeletal muscle cDNA by polymerase chain reaction using primers; 5′[…]3′ (SEQ ID NO: 3) and 5′[…]3′ (SEQ ID NO: 4). The amplified DNA fragment was digested by SalI and AflIII, and cloned into pFAST-BacHTa (Invitrogen). Preparation of recombinant vaculovirus, infection of the virus to SF-9 cells and purification of recombinant ACC2 protein with 6×His-tag at the N-terminal were performed in the same method as described above.
as §2, §3, §4
ACC2 was diluted to 6.4 μg/mL in reaction buffer, and the activity was measured by the same method as described for ACC1.
as §5, §6, §7

T2 sequence (O00763 117-2458 limits assumed): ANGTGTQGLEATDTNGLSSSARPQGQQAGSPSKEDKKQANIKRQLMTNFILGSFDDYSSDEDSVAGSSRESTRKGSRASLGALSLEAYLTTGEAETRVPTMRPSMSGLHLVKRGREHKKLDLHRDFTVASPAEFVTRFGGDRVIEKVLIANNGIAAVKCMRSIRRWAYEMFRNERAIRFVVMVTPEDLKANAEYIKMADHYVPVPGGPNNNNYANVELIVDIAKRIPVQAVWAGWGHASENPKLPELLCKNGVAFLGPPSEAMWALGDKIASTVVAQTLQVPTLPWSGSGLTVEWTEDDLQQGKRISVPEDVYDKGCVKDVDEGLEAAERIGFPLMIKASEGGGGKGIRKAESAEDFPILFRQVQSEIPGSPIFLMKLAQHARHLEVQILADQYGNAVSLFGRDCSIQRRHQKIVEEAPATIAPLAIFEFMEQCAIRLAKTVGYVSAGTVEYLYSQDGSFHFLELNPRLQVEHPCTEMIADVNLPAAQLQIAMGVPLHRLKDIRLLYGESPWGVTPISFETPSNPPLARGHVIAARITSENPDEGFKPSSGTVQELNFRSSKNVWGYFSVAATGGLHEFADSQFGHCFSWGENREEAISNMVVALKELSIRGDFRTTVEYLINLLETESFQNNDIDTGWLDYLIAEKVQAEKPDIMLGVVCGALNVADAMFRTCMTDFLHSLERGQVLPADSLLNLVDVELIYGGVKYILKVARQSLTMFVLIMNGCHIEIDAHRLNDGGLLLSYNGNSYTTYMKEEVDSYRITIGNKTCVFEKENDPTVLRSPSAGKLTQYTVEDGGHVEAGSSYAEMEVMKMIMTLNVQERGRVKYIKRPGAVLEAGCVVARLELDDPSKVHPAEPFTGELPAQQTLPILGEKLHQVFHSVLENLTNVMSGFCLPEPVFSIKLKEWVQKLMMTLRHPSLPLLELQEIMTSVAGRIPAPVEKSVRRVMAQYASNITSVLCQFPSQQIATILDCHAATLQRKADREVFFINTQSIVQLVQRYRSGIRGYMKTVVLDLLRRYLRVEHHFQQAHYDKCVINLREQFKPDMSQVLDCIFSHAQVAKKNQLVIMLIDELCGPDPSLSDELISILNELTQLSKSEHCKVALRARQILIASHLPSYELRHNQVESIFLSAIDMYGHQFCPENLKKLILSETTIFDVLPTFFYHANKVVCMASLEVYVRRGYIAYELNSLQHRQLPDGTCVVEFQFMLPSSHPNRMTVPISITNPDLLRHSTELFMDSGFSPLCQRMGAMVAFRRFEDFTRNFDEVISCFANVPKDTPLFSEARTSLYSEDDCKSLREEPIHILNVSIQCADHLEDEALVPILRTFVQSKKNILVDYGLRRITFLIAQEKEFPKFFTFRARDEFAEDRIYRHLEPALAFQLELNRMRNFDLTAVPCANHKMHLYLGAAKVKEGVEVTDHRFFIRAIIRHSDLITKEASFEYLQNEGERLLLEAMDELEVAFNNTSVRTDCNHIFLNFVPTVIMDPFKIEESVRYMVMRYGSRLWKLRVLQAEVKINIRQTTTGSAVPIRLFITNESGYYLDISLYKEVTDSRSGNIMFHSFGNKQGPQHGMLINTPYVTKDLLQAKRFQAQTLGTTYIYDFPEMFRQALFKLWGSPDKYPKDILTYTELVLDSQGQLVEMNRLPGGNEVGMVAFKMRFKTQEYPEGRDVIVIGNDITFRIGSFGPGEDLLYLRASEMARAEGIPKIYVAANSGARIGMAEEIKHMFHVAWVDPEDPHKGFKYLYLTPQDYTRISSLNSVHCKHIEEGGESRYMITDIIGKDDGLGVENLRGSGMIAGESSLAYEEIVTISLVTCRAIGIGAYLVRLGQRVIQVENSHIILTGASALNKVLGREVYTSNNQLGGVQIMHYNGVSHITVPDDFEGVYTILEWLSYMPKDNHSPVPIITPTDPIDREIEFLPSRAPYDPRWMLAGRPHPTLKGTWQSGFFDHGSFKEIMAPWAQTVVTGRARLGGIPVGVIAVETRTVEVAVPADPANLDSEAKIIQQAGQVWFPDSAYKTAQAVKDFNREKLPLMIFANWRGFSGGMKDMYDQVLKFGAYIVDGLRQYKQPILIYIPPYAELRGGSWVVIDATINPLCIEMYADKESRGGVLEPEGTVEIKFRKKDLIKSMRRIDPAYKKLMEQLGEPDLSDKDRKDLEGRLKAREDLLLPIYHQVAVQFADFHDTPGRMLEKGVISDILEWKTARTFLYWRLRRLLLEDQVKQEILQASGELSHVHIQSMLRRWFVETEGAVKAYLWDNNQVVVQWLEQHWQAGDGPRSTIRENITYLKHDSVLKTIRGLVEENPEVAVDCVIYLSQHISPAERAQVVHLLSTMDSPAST

IC50 (Human ACC1) | IC50 (Human ACC2) | SMILES
1 to 10 µM | 1 to 10 µM | CCNC(=O)Nc1sc2ccccc2c1C(=O)N1CCC2(CC1)N=C(CSC)NC2=O [Compound 3, 1-ethyl-3-(3-(2-(methylthiomethyl)-4-oxo-1,3,8-triazaspiro[4.5]dec-1-enecarbonyl)benzo[b]thiophen-2-yl)urea]
> 10 µM | 1 to 10 µM | CCNC(=O)Nc1sc2ccccc2c1C(=O)N1CCC2(CC1)N=C(CS(C)(=O)=O)NC2=O [Compound 4, 1-ethyl-3-(3-(2-(methylsulfonylmethyl)-4-oxo-1,3,8-triazaspiro[4.5]dec-1-enecarbonyl)benzo[b]thiophen-2-yl)urea]
> 10 µM | > 10 µM | CCNC(=O)Nc1sc2ccccc2c1C(=O)N1CCC2(CC1)N=C(CN1C(=O)CCC1=O)NC2=O [Compound 5, 1-(3-(2-((2,5-dioxopyrrolidin-1-yl)methyl)-4-oxo-1,3,8-triazaspiro[4.5]dec-1-enecarbonyl)benzo[b]thiophen-2-yl)-3-ethylurea]
> 10 µM | > 10 µM | CCNC(=O)Nc1sc2ccccc2c1C(=O)N1CCC(N)(C#N)CC1 [Compound 6, 1-(3-(4-amino-4-cyanopiperidine-1-carbonyl)benzo[b]thiophen-2-yl)-3-ethylurea]
> 10 µM | > 10 µM | CCNC(=O)Nc1sc2ccccc2c1C(=O)N1CCC(N)(C(N)=O)CC1 [Compound 7, 4-amino-1-(2-(3-ethylureido)benzo[b]thiophene-3-carbonyl)piperidine-4-carboxamide]
> 10 µM | 1 to 10 µM | CCNC(=O)Nc1sc2ccccc2c1C(=O)N1CCC2(CC1)N=C(CCl)NC2=O [Compound 8, 1-(3-(2-(chloromethyl)-4-oxo-1,3,8-triazaspiro[4.5]dec-1-enecarbonyl)benzo[b]thiophen-2-yl)-3-ethylurea]
1 to 10 µM | 1 to 10 µM | CCNC(=O)Nc1sc2c(OC)cccc2c1C(=O)N1CCC2(CC1)N=C(CCl)NC2=O [Compound 9, 1-(3-(2-(chloromethyl)-4-oxo-1,3,8-triazaspiro[4.5]dec-1-enecarbonyl)-7-methoxybenzo[b]thiophen-2-yl)-3-ethylurea]
1 to 10 µM | 1 to 10 µM | CCNC(=O)Nc1sc2ccccc2c1C(=O)N1CCC2(CC1)N=C(CCC(=O)OCC)NC2=O [Compound 10, ethyl 3-(8-(2-(3-ethylureido)benzo[b]thiophene-3-carbonyl)-4-oxo-1,3,8-triazaspiro[4.5]dec-1-en-2-yl)propanoate]
< 1 µM | < 1 µM | CCNC(=O)Nc1sc2c(OC)cccc2c1C(=O)N1CCC2(CC1)N=C(CCC(=O)OCC)NC2=O [Compound 11, ethyl 3-(8-(2-(3-ethylureido)-7-methoxybenzo[b]thiophene-3-carbonyl)-4-oxo-1,3,8-triazaspiro[4.5]dec-1-en-2-yl)propanoate]
1 to 10 µM | 1 to 10 µM | CCNC(=O)Nc1sc2ccccc2c1C(=O)N1CCC2(CC1)N=C(CCC(=O)N(CC)CC)NC2=O [Compound 12, N,N-diethyl-3-(8-(2-(3-ethylureido)benzo[b]thiophene-3-carbonyl)-4-oxo-1,3,8-triazaspiro[4.5]dec-1-en-2-yl)propanamide]
1 to 10 µM | < 1 µM | CCNC(=O)Nc1sc2ccccc2c1C(=O)N1CCC2(CC1)N=C(CCC(=O)N1CCCCC1)NC2=O [Compound 13, 1-ethyl-3-(3-(4-oxo-2-(3-oxo-3-(piperidin-1-yl)propyl)-1,3,8-triazaspiro[4.5]dec-1-enecarbonyl)benzo[b]thiophen-2-yl)urea]
> 10 µM | > 10 µM | CCNC(=O)Nc1sc2ccccc2c1C(=O)N1CCC2(CC1)N=CNC2=O [Compound 14, 1-ethyl-3-(3-(4-oxo-1,3,8-triazaspiro[4.5]dec-1-enecarbonyl)benzo[b]thiophen-2-yl)urea]
1 to 10 µM | < 1 µM | CCCCC1=NC2(CCN(C(=O)c3c(NC(=O)NCC)sc4ccccc34)CC2)C(=O)N1 [Compound 15, 1-(3-(2-butyl-4-oxo-1,3,8-triazaspiro[4.5]dec-1-enecarbonyl)benzo[b]thiophen-2-yl)-3-ethylurea]
1 to 10 µM | < 1 µM | CCNC(=O)Nc1sc2c(OC)cccc2c1C(=O)N1CCC2(CC1)N=C(C(C)C)NC2=O [Compound 16, 1-ethyl-3-(3-(2-isopropyl-4-oxo-1,3,8-triazaspiro[4.5]dec-2-enecarbonyl)-7-methoxybenzo[b]thiophen-2-yl)urea]
< 1 µM | < 1 µM | CCCCC1=NC2(CCN(C(=O)c3c(NC(=O)NCC)sc4c(OC)cccc34)CC2)C(=O)N1 [Compound 17, 1-(3-(2-butyl-4-oxo-1,3,8-triazaspiro[4.5]dec-1-enecarbonyl)-7-methoxybenzo[b]thiophen-2-yl)-3-ethylurea]
1 to 10 µM | < 1 µM | CCNC(=O)Nc1sc2c(OC)cccc2c1C(=O)N1CCC2(CC1)NC(c1ccccc1)=NC2=O [Compound 18, 1-ethyl-3-(7-methoxy-3-(4-oxo-2-phenyl-1,3,8-triazaspiro[4.5]dec-2-enecarbonyl)benzo[b]thiophen-2-yl)urea]
> 10 µM | 1 to 10 µM | CCCCN1C=NC2(CCN(C(=O)c3c(NC(=O)NCC)sc4ccccc34)CC2)C1=O [Compound 20, 1-(3-(3-butyl-4-oxo-1,3,8-triazaspiro[4.5]dec-1-enecarbonyl)benzo[b]thiophen-2-yl)-3-ethylurea]
1 to 10 µM | 1 to 10 µM | CCNC(=O)Nc1sc2ccccc2c1C(=O)N1CCC2(CC1)N=C(CSc1ccc(F)cc1)NC2=O [Compound 21, 1-ethyl-3-(3-(2-((4-fluorophenylthio)methyl)-4-oxo-1,3,8-triazaspiro[4.5]dec-1-enecarbonyl)benzo[b]thiophen-2-yl)urea]
1 to 10 µM | < 1 µM | CCNC(=O)Nc1sc2ccccc2c1C(=O)N1CCC2(CC1)N=C(CSC(C)C)NC2=O [Compound 22, 1-ethyl-3-(3-(2-(isopropylthiomethyl)-4-oxo-1,3,8-triazaspiro[4.5]dec-1-enecarbonyl)benzo[b]thiophen-2-yl)urea]
> 10 µM | < 1 µM | CCNC(=O)Nc1sc2ccccc2c1C(=O)N1CCC2(CC1)N=C(C[S+]([O-])C(C)C)NC2=O (stereo not shown) [Compound 23, 1-ethyl-3-(3-(2-(isopropylsulfinylmethyl)-4-oxo-1,3,8-triazaspiro[4.5]dec-1-enecarbonyl)benzo[b]thiophen-2-yl)urea]
1 to 10 µM | < 1 µM | CCNC(=O)Nc1sc2ccccc2c1C(=O)N1CCC2(CC1)N=C(CS(=O)(=O)C(C)C)NC2=O [Compound 24, 1-ethyl-3-(3-(2-(isopropylsulfonylmethyl)-4-oxo-1,3,8-triazaspiro[4.5]dec-1-enecarbonyl)benzo[b]thiophen-2-yl)urea]
1 to 10 µM | < 1 µM | CCNC(=O)Nc1sc2ccccc2c1C(=O)N1CCC2(CC1)N=C(COc1ccccc1OC)NC2=O [Compound 25, 1-ethyl-3-(3-(2-((2-methoxyphenoxy)methyl)-4-oxo-1,3,8-triazaspiro[4.5]dec-1-enecarbonyl)benzo[b]thiophen-2-yl)urea]
> 10 µM | < 1 µM | CCNC(=O)Nc1sc2ccccc2c1C(=O)N1CCC2(CC1)N=C(COc1ccccc1C#N)NC2=O [Compound 26, 1-(3-(2-((2-cyanophenoxy)methyl)-4-oxo-1,3,8-triazaspiro[4.5]dec-1-enecarbonyl)benzo[b]thiophen-2-yl)-3-ethylurea]
